Data as given in patent publication US10144929B2, “Polypeptide inhibitors of Smad3 polypeptide activities” (Mayo Foundation for Medical Education and Research, priority 2016, dated 2018).
Entries after “also recorded” stand apart in the source; their conditions may differ.

System: bleomycin (BLM)-induced lung fibrosis
Assay: Treatment model of bleomycin (BLM)-induced lung fibrosis
Format: in vivo, mice
Conditions: for interstitial fibronectin / lung histology: daily intraperitoneal 0.5 mg/kg from day 14, day 28; for BLM induction of profibrotic genes (collagen 1, connective tissue growth factor, fibronectin), qPCR of lung tissue / total collagen production induced by bleomycin (hydroxyproline content): daily intraperitoneal from day 14, day 28; for peripheral blood oxygen saturation (SpO2) / gas exchange: 2-week treatment interval from day 14
Procedure: FIGS. 5A-D. Bleomycin (BLM)-induced lung remodeling is attenuated by TAT-SH3-2. (A) Hematoxylin and Eosin (H&E), Masson's Trichrome (MT), or fibronectin (anti-fibronectin and Hematoxylin) staining of representative paraffin-embedded lung sections from Control (saline treated) or mice challenged with BLM for 28 days and treated daily with 0.5 mg/kg TAT-SH3-2 or TAT-SH3-2M beginning 14 days following initial BLM insult (×8). (B) qPCR of the indicated genes (Col1, collagen 1; CTGF, connective tissue growth factor; FN, fibronectin) in murine lung tissue harvested on day 28 from mice challenged with BLM (+) or saline (−) and treated daily with vehicle (−; methocel/saline) or the indicated amount (μg) of TAT-SH3-2 or TAT-SH3-2M as in (A). Data reflect mean+/−sd of n=4. (C) Mice were treated with saline or BLM as in (A) and on day 14 administered daily vehicle (−) or the indicated concentration of TAT peptide. Animals were sacrificed on day 28, and hydroxyproline content was determined as described herein. Data reflect mean+/−sd of n=3. *P<0.005, **P<0.002. (D) Mice were treated as in (C), and qPCR of the indicated genes (Col Iα1 (collagen Iα1); CTGF (connective tissue growth factor); and FN (fibronectin)) were assessed in lung tissue harvested on day 28. Data reflect mean+/−sd of n=5. *P<0.005, **P<0.001.
Time-dependent fluctuation of oxygen saturation (SpO2) levels (determined on room air) in mice challenged with BLM (or saline) for 28 days and treated 1×/day with vehicle (methocel/saline), 0.5 mg/kg of TAT-SH3-2 or TAT-SH3-2M beginning 14 days after initial BLM insult. Error bars reflect SEM from n=4. (B) Time-dependent fluctuation of oxygen saturation (SpO2) levels (determined on room air) in mice challenged with BLM (or saline) for 28 days and treated 1×/day with vehicle (methocel/saline) or the indicated concentration of TAT-SH3-2 or TAT-SH3-2M beginning 14 days after initial BLM insult. Error bars reflect mean+/−sd from n=5. *P<0.05, **P<0.01.
Female 18-20 g C57 black mice (Charles River Laboratories) were administered bleomycin (BLM; 0.075 U diluted in 50 μL 0.9% normal saline) or 50 μL 0.9% normal saline alone by tracheal instillation using an intratracheal aerosolized (Penn-century, Wyndmoor, Pa.) as described elsewhere (Andrianifahanana et al., FASEB J., 27(11):4444-54 (2013)). At this time, animals were shaved around the collar region to allow monitoring of dissolved oxygen levels (every 3rd day) on room air using a MouseOX collar clip monitoring system (Starr Life Science Corp. Oakmont, Pa.). TAT-SNX9(SH3) fusion polypeptides were solubilized with DMSO and prepared by thoroughly blending with Methocel (Sigma, Louis, Mo.) at a ratio of 1:7. Mice were treated daily by intraperitoneal injection (100 μL) of a TAT-SNX9(SH3) fusion polypeptide or an equal volume of methocel/saline beginning on day 14. On day 28, mice were euthanized, lungs were dissected, and samples were prepared for immunohistochemistry and other analyses as described elsewhere (Andrianifahanana et al., FASEB J., 27(11):4444-54 (2013); Daniels et al., J. Clin. Invest., 114:1308-16 (2004); and Wang et al., FASEB J., 19:1-11 (2005)).
The Hydroxyproline Assay Kit from Sigma (St. Louis, Mo.) was used to assess total lung collagen levels. Briefly, following sacrifice lung tissue was washed in PBS, and 30 mg homogenized in 300 μL water. One hundred μL samples were hydrolyzed in 12 M HCl, and duplicate 50 μL samples were analyzed according to the manufacturer's recommendations.

Substance	interstitial fibronectin	lung histology	BLM induction of profibrotic genes (collagen 1, connective tissue growth factor, fibronectin), qPCR of lung tissue	total collagen production induced by bleomycin (hydroxyproline content)	peripheral blood oxygen saturation (SpO2) / gas exchange (room air)	decrease in SpO2 during the treatment regime (room air, FIG. 6B) [%]	BLM-induced lung remodeling (FIG. 5 title)	loss of lung function (SpO2) (animals receiving the highest concentration, FIG. 6B)	peripheral blood oxygen saturation (SpO2) / gas exchange (room air, listed as TAT-SH-2)
TAT-SH3-2M: TAT-SH3-2 with G to V point mutations at amino acids 36-38; inactive TAT-SNX9 peptide unable to bind pSmad3 (TVNEGEIITITNPDVVVVWLEGRNIKGERGL; left off: small tags and cut ends)	ineffective	ineffective	but not TAT-SH3-2M, significantly reduced	ineffective	analogous decline in SpO2	~25			
TAT-SH3-2: TAT-SNX9(SH3) fusion polypeptide having SNX9 amino acids 21-51 (31 mer) (TVNEGEIITITNPDVGGGWLEGRNIKGERGL; left off: small tags and cut ends)	reduced interstitial fibronectin to essentially basal levels	improved lung histology	significantly reduced	dose-dependent dimunization in total collagen production	stabilized and/or improved gas exchange; also recorded: dose-dependent improvement in gas exchange		attenuated	no additional loss of lung function	stabilizes lung gas exchange
